According to US20150258129A1, “Method for Increasing the Activity of Lysosomal Enzymes” (Mount Sinai School of Medicine of New York University, priority 1998, published 2015):
Positions count from the first letter of the chain named. Like-named read-outs stand apart in the source and are kept apart here.

Assays:
[1] = target: T1, human lysosomal α-Gal A (Homo sapiens, UniProt P06280); test: In vitro inhibition of α-Gal A (recombinant, expressed in Sf-9 insect cells); assay type: biochemical; details: for IC50 / Ki: p-nitrophenyl-α-D-galactopyranoside as substrate; for IC50: pH 4.5; for reduction of inhibitory potential / affinity for α-Gal A relative to DGJ: compared with DGJ; for Ki: read-out: Ki for α-Gal A, from the slope of Lineweaver-Burk plots
T1 construct: made in house; host or cells: Sf-9 insect cells, recombinant baculovirus
T1 sequence (P06280 32-429): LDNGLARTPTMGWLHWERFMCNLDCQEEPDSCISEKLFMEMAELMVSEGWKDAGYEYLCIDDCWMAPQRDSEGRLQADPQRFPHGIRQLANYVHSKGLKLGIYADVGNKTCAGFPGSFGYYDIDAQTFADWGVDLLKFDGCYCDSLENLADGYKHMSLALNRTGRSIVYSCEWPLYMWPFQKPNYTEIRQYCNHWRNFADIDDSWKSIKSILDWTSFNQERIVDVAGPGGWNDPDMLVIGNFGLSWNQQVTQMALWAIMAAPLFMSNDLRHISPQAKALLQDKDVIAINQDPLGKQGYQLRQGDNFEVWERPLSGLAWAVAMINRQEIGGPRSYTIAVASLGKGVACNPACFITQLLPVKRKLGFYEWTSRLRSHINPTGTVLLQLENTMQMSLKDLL

[2] = target: T2, mutant α-Gal A (R301Q) (Homo sapiens, UniProt P06280, R301Q); test: Intracellular enhancement of α-Gal A activity in Fabry lymphoblasts; assay type: cell-based; parameters: endogenous in cells; host or cells: Epstein-Barr virus-transformed lymphoblasts from a Fabry patient (R301Q); details: for intracellular α-Gal A activity in Fabry lymphoblasts (summary): concentration ranges of 10-1000 μM; for increase of α-Gal A enzyme activity in R301Q lymphoblasts: inhibitor at 100 μM; for increase of α-Gal A enzyme activity in R301Q lymphoblasts / enhancement of α-Gal A activity in R301Q lymphoblasts / α-Gal A activity in R301Q lymphoblasts with increasing concentration of calystegine compound: 4 days; for enhancement of α-Gal A activity in R301Q lymphoblasts: inhibitor at 1000 μM; for α-Gal A activity in R301Q lymphoblasts with increasing concentration of calystegine compound: range 100-1000 μM, FIG. 6
T2 sequence (P06280 32-429 R301Q): T1 sequence (P06280 32-429) with R270Q
Experimental: FIG. 4B depicts results in which each inhibitor was added to the culture medium of R301Q lymphoblasts at a concentration of 100 μM. Cells were subsequently incubated for 4 days. After being washed twice with phosphate-buffered saline, the intracellular enzyme activity was determined with 4-MU-α-Gal as the substrate.
R301Q lymphoblasts were cultured with DGJ (4) ([…]), α-allo-HNJ (9) (▪), α-galacto-HNJ (10) (▴), or β-1-C-butyl-DGJ (16) (♦) at 1-1000 μM for 4 days before being collected for enzyme assay.
In FIG. 6B, R301Q lymphoblasts were cultured with calystegine B2 (18) and the results are shown therein. In FIG. 6C, R301Q lymphoblasts were cultured with N-methyl calystegine A3 (19) and the results are shown therein. In FIG. 6D R301Q lymphoblasts were cultured with N-methyl calystegine B2 (20) at 100-1000 μM for 4 days before being collected for enzyme assay and the results are shown therein.
The Epstein-Barr virus-transformed lymphoblast lines from a normal adult and a Fabry patient with R301Q mutation in α-Gal A (38) were cultured in RPMI-1640 medium (Nissui Pharmaceutical Co., Tokyo, Japan) supplemented with 10% fetal calf serum (FCS) at 37° C. under 5% CO2. Human fibroblasts from Gaucher and GM1-gangliosidosis patients were cultured in McCoy 5A medium supplemented with 10% FCS at 37° C. under 5% CO2.
Cells were cultured in the presence or absence of inhibitor for 4 days. After being washed twice with phosphate-buffered saline (PBS), the cells were harvested and homogenized in 200 μl of H2O, and 10 μl of the supernatant obtained by centrifugation at 10,000 g was incubated at 37° C. with 50 μl of the substrate solution composed by 6 mM 4-methylumbelliferyl α-D-galactoside (4-MU-α-Gal) and 90 mM N-acetylgalactosamine in 0.1 M citrate buffer (pH 4.5) for enzyme assay. One unit of intracellular enzyme activity was defined as one nmol of 4-methylumbelliferone released per hour at 37° C.

[3] = target: human β-glucocerebrosidase (Homo sapiens, UniProt P04062); test: In vitro inhibition of human β-glucocerebrosidase; assay type: biochemical; details: for IC50: 0.1M citrate buffer (pH 5.2), 4-MU-β-Glu as substrate
Chain of human β-glucocerebrosidase (P04062 40-536): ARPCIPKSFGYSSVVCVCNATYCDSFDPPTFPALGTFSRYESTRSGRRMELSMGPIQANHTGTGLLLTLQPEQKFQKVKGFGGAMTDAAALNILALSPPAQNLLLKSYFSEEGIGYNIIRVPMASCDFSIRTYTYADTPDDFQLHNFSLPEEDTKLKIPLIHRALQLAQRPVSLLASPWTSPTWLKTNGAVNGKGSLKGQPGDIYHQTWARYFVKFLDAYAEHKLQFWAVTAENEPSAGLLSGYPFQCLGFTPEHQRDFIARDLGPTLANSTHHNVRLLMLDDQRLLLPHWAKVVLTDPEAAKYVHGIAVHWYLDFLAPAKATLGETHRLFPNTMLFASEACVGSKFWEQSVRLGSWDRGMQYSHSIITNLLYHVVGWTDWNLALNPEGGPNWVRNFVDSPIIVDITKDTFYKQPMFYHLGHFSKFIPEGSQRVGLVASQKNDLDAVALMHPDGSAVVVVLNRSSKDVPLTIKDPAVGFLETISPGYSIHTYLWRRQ

[4] = target: T3, glucocerebrosidase (β-Glu), N370S/N370S (Homo sapiens, UniProt P04062, N409S); test: Intracellular enhancement of β-Glu activity in Gaucher fibroblasts (N370S/N370S); assay type: cell-based; details: for intracellular β-Glu activity in Gaucher fibroblasts (summary): concentration ranges of 0.05-100 μM
T3 construct: endogenous in cells; host or cells: human Gaucher patient fibroblasts, genotype N370S/N370S
T3 sequence (P04062 40-536 N409S): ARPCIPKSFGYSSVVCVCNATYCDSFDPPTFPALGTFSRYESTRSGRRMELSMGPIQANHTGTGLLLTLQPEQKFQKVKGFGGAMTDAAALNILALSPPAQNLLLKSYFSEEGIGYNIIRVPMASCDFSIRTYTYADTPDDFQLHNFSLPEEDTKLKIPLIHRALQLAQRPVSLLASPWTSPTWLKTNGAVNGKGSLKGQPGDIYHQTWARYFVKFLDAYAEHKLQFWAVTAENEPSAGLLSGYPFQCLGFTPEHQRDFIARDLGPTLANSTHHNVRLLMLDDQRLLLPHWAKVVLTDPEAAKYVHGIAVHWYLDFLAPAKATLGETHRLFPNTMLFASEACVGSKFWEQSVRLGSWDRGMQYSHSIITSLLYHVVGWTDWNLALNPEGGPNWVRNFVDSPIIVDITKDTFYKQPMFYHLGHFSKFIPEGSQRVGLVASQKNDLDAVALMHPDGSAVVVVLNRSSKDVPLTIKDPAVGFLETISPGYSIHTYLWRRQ

[5] = IC30 and (Ki)*: IC50 values (inhibitor concentration giving 50% inhibition) for α-Gal A
[6] = read-out: IC30 and (Ki)*: IC50 values (inhibitor concentration giving 50% inhibition) for α-Gal A
[7] = N370S/N370S, compound at 10 μM, 5 days
[8] = N370S/N370S, compound at 100 μM, 5 days

OCC1NCC(O)C(O)C1O (stereo not drawn) [compound 2, 1-Deoxymannojirimycin]
inhibition of α-Gal A (in words) [1]: no appreciable inhibition even at 1000 μM

OCC1NCC(O)C(O)C1O (stereo not drawn) [compound 3, 1-Deoxy-3-epi-nojirimycin]
inhibition of α-Gal A (in words) [1]: no appreciable inhibition even at 1000 μM

OC[C@H]1NC[C@H](O)[C@H](O)[C@H]1O [compound 5, 1-deoxy-3,4-diepi-nojirimycin]
inhibition of α-Gal A (in words) [1]: no appreciable inhibition even at 1000 μM

OCC1NCCC(O)C1O (stereo not drawn) [compound 6, 1,2-dideoxy-galactonojirimycin]
IC50 [1, 5]: 250 µM | reduction of inhibitory potential / affinity for α-Gal A relative to DGJ [1]: over 6000 fold

OCC1NC(CO)C(O)C(O)C1O (stereo not drawn) [compound 7, α-Homonojirimycin]
inhibition of α-Gal A (in words) [1]: not an inhibitor | IC50 [1, 5]: > 1000 µM

OCC1NC(CO)C(O)C(O)C1O (stereo not drawn) [compound 8, α-homomannojirimycin]
inhibition of α-Gal A (in words) [1]: weak inhibitor | IC50 [1, 5]: 464 µM

OC[C@H]1N[C@H](CO)[C@@H](O)C(O)[C@H]1O (stereo partly drawn) [compound 9, α-homoallonojirimycin]
intracellular α-Gal A activity in Fabry lymphoblasts (summary) [2]: effectively increase | increase of α-Gal A enzyme activity in R301Q lymphoblasts [2]: 2.4 fold | enhancement of α-Gal A activity in R301Q lymphoblasts [2]: 3.9 fold | inhibition mode toward α-Gal A (Lineweaver-Burk plots) [1]: competitive inhibitors | Ki [1]: 2.6 µM | IC50 [1, 6]: 4.3 µM

OC[C@H]1N[C@H](CO)[C@H](O)C(O)[C@H]1O (stereo partly drawn) [compound 10, α-Homogalactonojirimycin]
intracellular α-Gal A activity in Fabry lymphoblasts (summary) [2]: effectively increase | increase of α-Gal A enzyme activity in R301Q lymphoblasts [2]: 5.2 fold | enhancement of α-Gal A activity in R301Q lymphoblasts [2]: 12.5 fold | inhibition mode toward α-Gal A (Lineweaver-Burk plots) [1]: competitive inhibitors | reduction of inhibitory potential / affinity for α-Gal A relative to DGJ [1]: approximately 4 fold | Ki [1]: 0.17 µM | IC50 [1, 6]: 0.21 µM

CN1CC(O)C(O)C(O)C1CO (stereo not drawn) [compound 11, N-Methyl-1-deoxygalactonojirimycin]
IC50 [1, 5]: 96 µM

CCN1CC(O)C(O)C(O)C1CO (stereo not drawn) [compound 12, N-Ethyl-1-deoxygalactonojirimycin]
IC50 [1, 5]: 306 µM

CCCN1CC(O)C(O)C(O)C1CO (stereo not drawn) [compound 13, N-Propyl-1-deoxygalactonojirimycin]
IC50 [1, 5]: 301 µM

OCCN1CC(O)C(O)C(O)C1CO (stereo not drawn) [compound 15, N-Hydroxyethyl-1-deoxygalactonojirimycin]
IC50 [1, 5]: 520 µM

CN1C2CCC1(O)C(O)C(O)C2 (stereo not drawn) [compound 19, N-methyl calystegine A3]
intracellular α-Gal A activity in Fabry lymphoblasts (summary) [2]: effectively increase | α-Gal A activity in R301Q lymphoblasts with increasing concentration of calystegine compound [2]: elevated with increasing concentration

CN1C2CCC1(O)C(O)C(O)C2O (stereo not drawn) [compound 20, N-methyl calystegine B2]
intracellular α-Gal A activity in Fabry lymphoblasts (summary) [2]: effectively increase | α-Gal A activity in R301Q lymphoblasts with increasing concentration of calystegine compound [2]: elevated with increasing concentration | IC50 [3]: 320 µM

O[C@@H]1[C@@H](O)C[C@]2(O)CC[C@H]1N2 [compound 22, calystegine A5]
IC50 [3]: 31 µM

O[C@@H]1C[C@]2(O)N[C@H]1C[C@@H](O)[C@@H]2O [compound 23, calystegine B1]
IC50 [3]: 2.5 µM | intracellular β-Glu activity in Gaucher fibroblasts (summary) [4]: effectively enhance

O[C@@H]1[C@@H](O)[C@H]2CC[C@](O)(N2)[C@@H]1O [compound 24, calystegine B3]
IC50 [3]: 76 µM

O[C@@H]1[C@H](O)[C@H]2CC[C@](O)(N2)[C@H]1O [compound 25, calystegine B4]
IC50 [3]: 82 µM

OC1CC2(O)NC1C(O)C(O)C2O (stereo not drawn) [compound 26, calystegine C1]
IC50 [3]: 2.5 µM | intracellular β-Glu activity in Gaucher fibroblasts (summary) [4]: effectively enhance

OC[C@H]1NC[C@@H](O)[C@@H]1O [compound 28, 1,4-dideoxy-1,4-imino-D-arabinitol]
IC50 [3]: 160 µM

CCCCN1C[C@H](CO)[C@@H](O)[C@H](O)C1 [compound 34, N-Butyl-isofagomine]
IC50 [3]: 44 µM | elevation of residual β-Glu activity in Gaucher cells [4, 7]: 73% | elevation of residual β-Glu activity in Gaucher cells [4, 8]: 56% | intracellular β-Glu activity in Gaucher fibroblasts (summary) [4]: effectively enhance

OCC1CN(CCCC2CCCCC2)CC(O)C1O (stereo not drawn) [compound 35, N-(3-cyclohexylpropyl)-isofagomine]
IC50 [3]: 100 µM | elevation of residual β-Glu activity in Gaucher cells [4, 7]: 106% | elevation of residual β-Glu activity in Gaucher cells [4, 8]: 47% | intracellular β-Glu activity in Gaucher fibroblasts (summary) [4]: effectively enhance

OCC1CN(CCCc2ccccc2)CC(O)C1O (stereo not drawn) [compound 36, N-(3-phenylpropyl)-isofagomine]
IC50 [3]: 69 µM | elevation of residual β-Glu activity in Gaucher cells [4, 7]: 50% | elevation of residual β-Glu activity in Gaucher cells [4, 8]: 54% | intracellular β-Glu activity in Gaucher fibroblasts (summary) [4]: effectively enhance

CC(C)=CCC/C(C)=C\CC/C(C)=C/CN1CC(O)C(O)C(CO)C1 (stereo not drawn) [compound 37, N-[(2E,6Z,10Z)-3,7,11-trimethyldodecatrienyl]-isofagomine]
IC50 [3]: 1.5 µM | increase in potency against β-Glu compared with the 4 carbon chain compound ([3]; compared with compound 32 (so in the source)): 30 fold | elevation of residual β-Glu activity in Gaucher cells [4, 7]: 43% | decrease of residual β-Glu activity in Gaucher cells [4, 8]: 53% | intracellular β-Glu activity in Gaucher fibroblasts (summary) [4]: effectively enhance

DNJ bisulfite [compound 32]
IC50 [3]: 28 µM
